Laboratory results published in ChEMBL document CHEMBL5375967 (J Med Chem, 2023).
Values after ≈ are worked out from the molar mass of the structure shown. Active and inactive are the calls of the source. The rule behind the calls is not given here.

Key:
[1] = target: T1, Leukotriene A-4 hydrolase (Homo sapiens, UniProt P09960); test: Inhibition of LTA4H in human whole blood assessed as ionophore-stimulated LTB4 release preincubated for 15 mins by competitive immunoassay; type: tissue-based
T1 sequence (P09960 whole entry): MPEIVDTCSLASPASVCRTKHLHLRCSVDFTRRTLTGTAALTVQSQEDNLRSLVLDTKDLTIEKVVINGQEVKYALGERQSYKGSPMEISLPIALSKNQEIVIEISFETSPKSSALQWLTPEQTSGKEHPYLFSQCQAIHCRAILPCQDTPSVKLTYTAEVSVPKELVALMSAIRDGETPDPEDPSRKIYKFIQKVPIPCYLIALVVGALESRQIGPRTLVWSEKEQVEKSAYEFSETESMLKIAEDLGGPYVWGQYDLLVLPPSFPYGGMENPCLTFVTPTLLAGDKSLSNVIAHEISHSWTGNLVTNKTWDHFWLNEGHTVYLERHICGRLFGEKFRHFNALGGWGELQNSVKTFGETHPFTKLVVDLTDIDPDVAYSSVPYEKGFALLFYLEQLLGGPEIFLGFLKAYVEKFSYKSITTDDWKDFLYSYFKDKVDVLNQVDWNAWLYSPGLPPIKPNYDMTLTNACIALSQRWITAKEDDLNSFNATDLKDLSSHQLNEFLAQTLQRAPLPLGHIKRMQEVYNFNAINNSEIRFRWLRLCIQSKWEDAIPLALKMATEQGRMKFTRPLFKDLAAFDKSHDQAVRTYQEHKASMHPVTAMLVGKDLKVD

[2] = Inhibition of calcium ionophore A23187-stimulated LTB4 release in C57BL/6 mouse model at 10 mg/kg, po bid measured after 2 hrs; type: functional
[3] = Clearance in C57BL/6 mouse at 1 mg/kg, iv measured upto 24 hrs by LC-MS/MS analysis; type: ADME, organism-based; conditions: in vivo
[4] = Volume of distribution at steady state in C57BL/6 mouse at 1 mg/kg, iv measured upto 24 hrs by LC-MS/MS analysis; type: ADME, organism-based; conditions: in vivo, read-out: Vdss
[5] = MRT in C57BL/6 mouse at 1 mg/kg, iv measured upto 24 hrs by LC-MS/MS analysis; type: ADME, organism-based; conditions: in vivo
[6] = Volume of distribution at steady state in Wistar rat at 1 mg/kg, iv measured upto 24 hrs by LC-MS/MS analysis; type: ADME, organism-based; conditions: in vivo, read-out: Vdss
[7] = MRT in Wistar rat at 1 mg/kg, iv measured upto 24 hrs by LC-MS/MS analysis; type: ADME, organism-based; conditions: in vivo
[8] = Clearance in dog at 1 mg/kg, iv measured upto 24 hrs by LC-MS/MS analysis; type: ADME, organism-based, Canis lupus familiaris; conditions: in vivo
[9] = Volume of distribution at steady state in dog at 1 mg/kg, iv measured upto 24 hrs by LC-MS/MS analysis; type: ADME, organism-based, Canis lupus familiaris; conditions: in vivo, read-out: Vdss
[10] = AUC (0 to infinity) in C57BL/6 mouse at 3 mg/kg, po measured upto 24 hrs by LC-MS/MS analysis; type: ADME, organism-based; design: time < 24 hrs, dose 3 mg/kg, route po; conditions: in vivo
[11] = Cmax in Wistar rat at 30 mg/kg, po measured upto 24 hrs by LC-MS/MS analysis; type: ADME, organism-based; design: time < 24 hrs, dose 30 mg/kg, route po; conditions: in vivo
[12] = Oral bioavailability in Wistar rat at 3 mg/kg measured upto 24 hrs by LC-MS/MS analysis; type: ADME, organism-based; conditions: in vivo
[13] = Oral bioavailability in Wistar rat at 30 mg/kg measured upto 24 hrs by LC-MS/MS analysis; type: ADME, organism-based; conditions: in vivo
[14] = Cmax in dog at 3 mg/kg, po measured upto 24 hrs by LC-MS/MS analysis; type: ADME, organism-based, Canis lupus familiaris; design: time < 24 hrs, dose 3 mg/kg, route po; conditions: in vivo
[15] = Solubility of compound in FeSSIF at pH 6.8; type: physicochemical
[16] = Drug concentration in blood of arachidonic acid-induced skin inflammation 129S2/SvPasCrl mouse model at 0.03 mg/kg, po measured after 4 hrs; type: ADME, organism-based; conditions: read-out: Ct
[17] = Drug concentration in blood of arachidonic acid-induced skin inflammation 129S2/SvPasCrl mouse model at 3 mg/kg, po measured after 4 hrs; type: ADME, organism-based; conditions: read-out: Ct
[18] = Inhibition of arachidonic acid-stimulated LTB4 release in skin inflammation 129S2/SvPasCrl mouse model at 0.3 mg/kg, po pretreated with compound for 4 hrs followed by arachidonic acid stimulation and measured after 1 hr; type: functional
[19] = Inhibition of neutrophil influx in arachidonic acid-stimulated skin inflammation 129S2/SvPasCrl mouse model assessed as effect on MPO level in skin at 0.03 mg/kg, po pretreated with compound for 4 hrs followed by arachidonic acid stimulation and measured after 1 hr; type: functional; conditions: time 5 hrs
Mus musculus [20] = test: Antiarthritic activity in KRN passive serum-induced arthritis C57BL/6 mouse model assessed as reduction in paw swelling at 0.1 to 10 mg/kg, po bid measured on day 7 at 2 hrs after first dose and 14 hrs after second dose; type: functional, organism-based; conditions: dose 0.1-10 mg/kg, time 7.0 day
Mus musculus [21] = test: Antiarthritic activity in KRN passive serum-induced arthritis C57BL/6 mouse model assessed as reduction in cellularity at 0.1 to 10 mg/kg, po bid measured on day 7 at 2 hrs after first dose and 14 hrs after second dose; type: functional, organism-based; conditions: dose 0.1-10 mg/kg, time 7.0 day
Mus musculus [22] = test: Antiarthritic activity in KRN passive serum-induced arthritis C57BL/6 mouse model assessed as reduction in proteoglycan loss at 0.1 to 10 mg/kg, po bid measured on day 7 at 2 hrs after first dose and 14 hrs after second dose; type: functional, organism-based; conditions: dose 0.1-10 mg/kg, time 7.0 day
Mus musculus [23] = test: Antiarthritic activity in KRN passive serum-induced arthritis C57BL/6 mouse model assessed as reduction in macrophage numbers at 0.1 to 10 mg/kg, po bid measured on day 7 at 2 hrs after first dose and 14 hrs after second dose; type: functional, organism-based; conditions: dose 0.1-10 mg/kg, time 7.0 day
Mus musculus [24] = test: Antiarthritic activity in KRN passive serum-induced arthritis C57BL/6 mouse model assessed as reduction in tissue destruction at 0.1 to 10 mg/kg, po bid measured on day 7 at 2 hrs after first dose and 14 hrs after second dose; type: functional, organism-based; conditions: dose 0.1-10 mg/kg, time 7.0 day
[25] = target: T2, Voltage-gated inwardly rectifying potassium channel KCNH2 (Homo sapiens, UniProt Q12809)
T2 sequence (Q12809 whole entry): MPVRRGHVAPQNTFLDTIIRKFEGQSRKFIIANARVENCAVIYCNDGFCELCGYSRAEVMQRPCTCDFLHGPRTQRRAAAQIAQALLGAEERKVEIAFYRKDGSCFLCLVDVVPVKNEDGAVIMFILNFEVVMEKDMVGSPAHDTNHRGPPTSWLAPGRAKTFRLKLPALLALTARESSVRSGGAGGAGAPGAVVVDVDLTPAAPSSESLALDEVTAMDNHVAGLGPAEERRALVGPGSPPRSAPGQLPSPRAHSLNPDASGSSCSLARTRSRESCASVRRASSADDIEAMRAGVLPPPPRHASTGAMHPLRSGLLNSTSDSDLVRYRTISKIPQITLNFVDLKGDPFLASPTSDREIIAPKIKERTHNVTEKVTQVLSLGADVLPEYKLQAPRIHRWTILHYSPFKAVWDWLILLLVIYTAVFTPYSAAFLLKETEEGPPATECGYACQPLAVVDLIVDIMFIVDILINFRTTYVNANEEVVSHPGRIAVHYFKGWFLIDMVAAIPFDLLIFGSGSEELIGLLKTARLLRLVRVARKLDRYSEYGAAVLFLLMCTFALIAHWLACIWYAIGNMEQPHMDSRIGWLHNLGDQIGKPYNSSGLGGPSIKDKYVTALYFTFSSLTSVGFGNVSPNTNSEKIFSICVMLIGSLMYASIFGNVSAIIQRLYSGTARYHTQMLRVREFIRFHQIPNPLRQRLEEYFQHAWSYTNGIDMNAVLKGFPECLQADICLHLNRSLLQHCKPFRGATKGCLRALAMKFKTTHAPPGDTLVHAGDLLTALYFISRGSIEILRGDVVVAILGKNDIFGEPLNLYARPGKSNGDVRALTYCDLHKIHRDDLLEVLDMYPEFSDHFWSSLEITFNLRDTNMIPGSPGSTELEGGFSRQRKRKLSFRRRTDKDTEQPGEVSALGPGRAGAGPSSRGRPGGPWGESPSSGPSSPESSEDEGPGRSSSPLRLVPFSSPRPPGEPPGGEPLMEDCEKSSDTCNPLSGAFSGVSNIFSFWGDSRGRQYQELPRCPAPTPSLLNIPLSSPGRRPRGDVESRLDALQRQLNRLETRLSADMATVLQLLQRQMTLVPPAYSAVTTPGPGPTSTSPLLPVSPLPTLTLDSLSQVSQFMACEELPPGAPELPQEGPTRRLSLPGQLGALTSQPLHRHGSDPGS

[26] = target: T2, Voltage-gated inwardly rectifying potassium channel KCNH2; remark: listed apart in the source
in vivo [27] = conditions: Sprague-Dawley, rat, iv, 1 mg/kg
in vivo [28] = conditions: Sprague-Dawley, rat, iv, 1 mg/kg; remark: listed apart in the source
in vivo [29] = conditions: Sprague-Dawley, rat, iv, 1 mg/kg; remark: listed apart in the source
in vivo [30] = conditions: Sprague-Dawley, rat, iv, 1 mg/kg; remark: listed apart in the source
in vivo [31] = conditions: Sprague-Dawley, rat, iv, 1 mg/kg; remark: listed apart in the source
physchem = conditions: buffer, pH 6.8
in vitro [32] = conditions: dog, MDCK
in vitro [33] = conditions: rat, liver microsomes
in vitro [34] = conditions: human, liver microsomes

## N[C@H](CO)Cn1ccc(-c2ccc(Oc3ncc(-c4cc[nH]n4)cc3F)cc2)n1
[1]
  IC50: 0.047 µM
[2]
  inhibition in vivo at 10 mg/kg: 95%
[3]
  clearance: 7.5 mL/min/kg
[4]
  Vd: 1.6 L/kg
[5]
  MRT: 3.3 h
[6]
  Vd: 6.9 L/kg
[7]
  MRT: 16 h
[8]
  clearance: 2.2 mL/min/kg
[9]
  Vd: 7 L/kg
[10]
  AUC(0-inf): 5.51 µM·h
[11]
  Cmax: 5490 nM
[12]
  bioavailability: 39%
[13]
  bioavailability: 46%
[14]
  Cmax: 1180 nM
[15]
  solubility: > 2000 µg/mL
[16]
  concentration at 4 h: 79 nM
[17]
  concentration at 4 h: 367 nM
[18]
  inhibition in vivo at 0.3 mg/kg: 93%
[19]
  inhibition in vivo at 0.03 mg/kg: 52%
Mus musculus [20]
  Activity: Active
Mus musculus [21]
  Activity: Active
Mus musculus [22]
  Activity: Active
Mus musculus [23]
  Activity: Active
Mus musculus [24]
  Activity: Active
[25]
  IC50: > 30 µM
[26]
  IC50: > 30 µM
In vivo [27]
  Vd: 5.5 L/kg
In vivo [28]
  MRT: 4.6 h
In vivo [29]
  bioavailability: 57%
In vivo [30]
  Cmax: 298 nM
In vivo [31]
  concentration at 24 h: 32 nM
physchem
  solubility: 180 µM (≈ 71 µg/mL)
In vitro [32]
  Papp A→B: 12 ×10⁻⁶ cm/s
In vitro [33]
  microsomal CLint: 179 µL/min/mg
In vitro [34]
  microsomal CLint: < 25 µL/min/mg
